From ChEMBL document CHEMBL1142222, “A-803467, a potent and selective Nav1.8 sodium channel blocker, attenuates neuropathic and inflammatory pain in the rat” (Proc Natl Acad Sci U S A, 2007)
The source made the active and inactive calls. No cut-off for these calls is given here.

Columns and labels:
[1] = target: T1, Sodium channel protein type 9 subunit alpha (Homo sapiens, UniProt Q15858); assay: Inhibition of human Nav1.7 channel expressed in HEK293 cells at -60 mV by patch clamp method; assay type: cell-based
T1 sequence (Q15858 whole entry): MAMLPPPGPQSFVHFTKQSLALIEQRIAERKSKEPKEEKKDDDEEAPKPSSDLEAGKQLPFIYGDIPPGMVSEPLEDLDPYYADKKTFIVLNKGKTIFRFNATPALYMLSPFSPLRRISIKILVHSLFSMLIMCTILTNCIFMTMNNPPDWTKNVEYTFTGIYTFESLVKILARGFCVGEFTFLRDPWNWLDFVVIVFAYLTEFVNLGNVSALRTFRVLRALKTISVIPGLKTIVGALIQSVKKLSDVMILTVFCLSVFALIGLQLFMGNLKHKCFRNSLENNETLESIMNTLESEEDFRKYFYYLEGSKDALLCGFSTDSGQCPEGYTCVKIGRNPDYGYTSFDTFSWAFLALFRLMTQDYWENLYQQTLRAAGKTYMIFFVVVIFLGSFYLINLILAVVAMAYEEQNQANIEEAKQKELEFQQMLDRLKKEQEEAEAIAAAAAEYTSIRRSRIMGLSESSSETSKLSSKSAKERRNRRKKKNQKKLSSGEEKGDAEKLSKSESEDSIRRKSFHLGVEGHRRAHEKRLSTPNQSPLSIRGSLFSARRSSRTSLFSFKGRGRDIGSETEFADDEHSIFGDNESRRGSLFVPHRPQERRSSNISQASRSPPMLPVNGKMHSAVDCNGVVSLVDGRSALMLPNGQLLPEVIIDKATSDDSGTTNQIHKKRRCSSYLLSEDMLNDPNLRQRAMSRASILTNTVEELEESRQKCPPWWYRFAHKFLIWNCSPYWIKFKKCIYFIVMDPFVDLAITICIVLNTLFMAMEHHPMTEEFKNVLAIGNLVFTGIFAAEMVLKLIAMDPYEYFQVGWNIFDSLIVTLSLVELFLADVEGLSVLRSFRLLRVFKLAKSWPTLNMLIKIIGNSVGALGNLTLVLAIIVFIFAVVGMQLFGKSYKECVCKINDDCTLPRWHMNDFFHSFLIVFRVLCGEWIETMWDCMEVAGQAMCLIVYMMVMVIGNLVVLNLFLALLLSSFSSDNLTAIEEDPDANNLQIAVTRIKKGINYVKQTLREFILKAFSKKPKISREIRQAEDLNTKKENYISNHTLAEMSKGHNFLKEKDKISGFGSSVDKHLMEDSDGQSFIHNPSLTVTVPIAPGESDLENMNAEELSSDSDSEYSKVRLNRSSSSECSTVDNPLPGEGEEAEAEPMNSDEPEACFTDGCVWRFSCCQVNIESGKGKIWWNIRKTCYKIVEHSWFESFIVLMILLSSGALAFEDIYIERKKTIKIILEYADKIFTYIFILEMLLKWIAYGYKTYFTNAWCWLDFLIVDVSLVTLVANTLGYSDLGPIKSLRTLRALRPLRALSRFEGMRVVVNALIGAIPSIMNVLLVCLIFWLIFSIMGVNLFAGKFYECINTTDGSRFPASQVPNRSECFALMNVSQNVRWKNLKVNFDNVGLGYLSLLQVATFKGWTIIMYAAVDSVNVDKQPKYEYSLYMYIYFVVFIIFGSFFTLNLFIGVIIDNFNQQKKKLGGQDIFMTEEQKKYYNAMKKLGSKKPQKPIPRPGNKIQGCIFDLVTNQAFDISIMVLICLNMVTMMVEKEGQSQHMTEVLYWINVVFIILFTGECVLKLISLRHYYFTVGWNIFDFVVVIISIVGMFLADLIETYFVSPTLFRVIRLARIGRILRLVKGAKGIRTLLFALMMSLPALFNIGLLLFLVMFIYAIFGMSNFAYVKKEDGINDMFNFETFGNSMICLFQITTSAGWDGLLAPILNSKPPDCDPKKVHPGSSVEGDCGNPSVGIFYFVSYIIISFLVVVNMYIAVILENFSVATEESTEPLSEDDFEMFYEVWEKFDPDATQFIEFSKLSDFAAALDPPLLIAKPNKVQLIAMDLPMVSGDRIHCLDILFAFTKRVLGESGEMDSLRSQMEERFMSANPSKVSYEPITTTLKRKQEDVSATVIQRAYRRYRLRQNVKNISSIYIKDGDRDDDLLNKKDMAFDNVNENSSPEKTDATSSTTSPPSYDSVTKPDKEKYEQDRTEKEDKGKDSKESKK

[2] = target: C-X-C chemokine receptor type 2 (Homo sapiens, UniProt P25025); assay: Displacement of [125I]IL8 from CXCR2 receptor
[3] = Oral bioavailability in rat; assay type: ADME, organism-based; conditions: in vivo
[4] = target: T1, Sodium channel protein type 9 subunit alpha; assay: Inhibition of human Nav1.7 channel expressed in HEK293 cells at -120 mV by patch clamp method; assay type: cell-based
[5] = target: Potassium voltage-gated channel subfamily KQT member 3 (Homo sapiens, UniProt O43525); assay: Inhibition of KCNQ3 channel
Sequence of Potassium voltage-gated channel subfamily KQT member 3 (O43525 whole entry): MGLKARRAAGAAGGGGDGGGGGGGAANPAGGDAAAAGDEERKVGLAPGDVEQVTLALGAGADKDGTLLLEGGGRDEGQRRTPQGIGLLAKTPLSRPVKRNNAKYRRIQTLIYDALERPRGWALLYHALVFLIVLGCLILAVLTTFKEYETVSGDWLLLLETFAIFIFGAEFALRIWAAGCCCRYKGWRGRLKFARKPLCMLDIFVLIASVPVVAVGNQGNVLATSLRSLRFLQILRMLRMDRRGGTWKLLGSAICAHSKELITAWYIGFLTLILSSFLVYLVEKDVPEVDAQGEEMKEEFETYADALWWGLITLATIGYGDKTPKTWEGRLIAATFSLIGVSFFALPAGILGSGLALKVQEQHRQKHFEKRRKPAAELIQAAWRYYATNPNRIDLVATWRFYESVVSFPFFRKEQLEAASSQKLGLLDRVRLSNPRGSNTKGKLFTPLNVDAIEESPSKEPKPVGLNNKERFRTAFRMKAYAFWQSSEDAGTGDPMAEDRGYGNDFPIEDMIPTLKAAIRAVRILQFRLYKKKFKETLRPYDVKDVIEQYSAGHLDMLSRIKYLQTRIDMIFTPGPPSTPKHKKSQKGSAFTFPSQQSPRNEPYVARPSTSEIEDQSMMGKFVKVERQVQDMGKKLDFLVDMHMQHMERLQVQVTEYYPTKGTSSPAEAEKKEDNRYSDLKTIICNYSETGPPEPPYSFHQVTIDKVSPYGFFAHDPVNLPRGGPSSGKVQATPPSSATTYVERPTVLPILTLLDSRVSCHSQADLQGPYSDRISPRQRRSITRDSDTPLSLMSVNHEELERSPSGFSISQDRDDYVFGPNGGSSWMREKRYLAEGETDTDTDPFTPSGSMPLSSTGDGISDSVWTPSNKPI

Rattus norvegicus [6] = assay: Analgesic activity in ip dosed rat acute mechanical stimulation nociception model assessed as paw withdrawal latency; assay type: functional
[7] = Displacement of [3H]GABA from GABA receptor
Rattus norvegicus [8] = assay: Analgesic activity in ip dosed rat skin incision model of post-operative pain after 2 hrs; assay type: functional
Mus musculus = assay: Analgesic activity in ip dosed mouse visceral pain model assessed as acetic acid induced writhing; assay type: functional
Rattus norvegicus [9] = assay: Analgesic activity in rat skin incision model of post-operative pain at 100 mg/kg, ip after 24 hrs; assay type: functional; conditions: route intraperitoneal
DRG neuron = assay: Suppression of spontaneous firing of rat DRG neurons at 0.3 uM; assay type: functional, cell-based
[10] = target: Sodium channel protein type 2 subunit alpha (Homo sapiens, UniProt Q99250); assay: Inhibition of human Nav1.2 channel expressed in HEK293 cells at -120 mV by patch clamp method; assay type: cell-based
Sequence of Sodium channel protein type 2 subunit alpha (Q99250 whole entry): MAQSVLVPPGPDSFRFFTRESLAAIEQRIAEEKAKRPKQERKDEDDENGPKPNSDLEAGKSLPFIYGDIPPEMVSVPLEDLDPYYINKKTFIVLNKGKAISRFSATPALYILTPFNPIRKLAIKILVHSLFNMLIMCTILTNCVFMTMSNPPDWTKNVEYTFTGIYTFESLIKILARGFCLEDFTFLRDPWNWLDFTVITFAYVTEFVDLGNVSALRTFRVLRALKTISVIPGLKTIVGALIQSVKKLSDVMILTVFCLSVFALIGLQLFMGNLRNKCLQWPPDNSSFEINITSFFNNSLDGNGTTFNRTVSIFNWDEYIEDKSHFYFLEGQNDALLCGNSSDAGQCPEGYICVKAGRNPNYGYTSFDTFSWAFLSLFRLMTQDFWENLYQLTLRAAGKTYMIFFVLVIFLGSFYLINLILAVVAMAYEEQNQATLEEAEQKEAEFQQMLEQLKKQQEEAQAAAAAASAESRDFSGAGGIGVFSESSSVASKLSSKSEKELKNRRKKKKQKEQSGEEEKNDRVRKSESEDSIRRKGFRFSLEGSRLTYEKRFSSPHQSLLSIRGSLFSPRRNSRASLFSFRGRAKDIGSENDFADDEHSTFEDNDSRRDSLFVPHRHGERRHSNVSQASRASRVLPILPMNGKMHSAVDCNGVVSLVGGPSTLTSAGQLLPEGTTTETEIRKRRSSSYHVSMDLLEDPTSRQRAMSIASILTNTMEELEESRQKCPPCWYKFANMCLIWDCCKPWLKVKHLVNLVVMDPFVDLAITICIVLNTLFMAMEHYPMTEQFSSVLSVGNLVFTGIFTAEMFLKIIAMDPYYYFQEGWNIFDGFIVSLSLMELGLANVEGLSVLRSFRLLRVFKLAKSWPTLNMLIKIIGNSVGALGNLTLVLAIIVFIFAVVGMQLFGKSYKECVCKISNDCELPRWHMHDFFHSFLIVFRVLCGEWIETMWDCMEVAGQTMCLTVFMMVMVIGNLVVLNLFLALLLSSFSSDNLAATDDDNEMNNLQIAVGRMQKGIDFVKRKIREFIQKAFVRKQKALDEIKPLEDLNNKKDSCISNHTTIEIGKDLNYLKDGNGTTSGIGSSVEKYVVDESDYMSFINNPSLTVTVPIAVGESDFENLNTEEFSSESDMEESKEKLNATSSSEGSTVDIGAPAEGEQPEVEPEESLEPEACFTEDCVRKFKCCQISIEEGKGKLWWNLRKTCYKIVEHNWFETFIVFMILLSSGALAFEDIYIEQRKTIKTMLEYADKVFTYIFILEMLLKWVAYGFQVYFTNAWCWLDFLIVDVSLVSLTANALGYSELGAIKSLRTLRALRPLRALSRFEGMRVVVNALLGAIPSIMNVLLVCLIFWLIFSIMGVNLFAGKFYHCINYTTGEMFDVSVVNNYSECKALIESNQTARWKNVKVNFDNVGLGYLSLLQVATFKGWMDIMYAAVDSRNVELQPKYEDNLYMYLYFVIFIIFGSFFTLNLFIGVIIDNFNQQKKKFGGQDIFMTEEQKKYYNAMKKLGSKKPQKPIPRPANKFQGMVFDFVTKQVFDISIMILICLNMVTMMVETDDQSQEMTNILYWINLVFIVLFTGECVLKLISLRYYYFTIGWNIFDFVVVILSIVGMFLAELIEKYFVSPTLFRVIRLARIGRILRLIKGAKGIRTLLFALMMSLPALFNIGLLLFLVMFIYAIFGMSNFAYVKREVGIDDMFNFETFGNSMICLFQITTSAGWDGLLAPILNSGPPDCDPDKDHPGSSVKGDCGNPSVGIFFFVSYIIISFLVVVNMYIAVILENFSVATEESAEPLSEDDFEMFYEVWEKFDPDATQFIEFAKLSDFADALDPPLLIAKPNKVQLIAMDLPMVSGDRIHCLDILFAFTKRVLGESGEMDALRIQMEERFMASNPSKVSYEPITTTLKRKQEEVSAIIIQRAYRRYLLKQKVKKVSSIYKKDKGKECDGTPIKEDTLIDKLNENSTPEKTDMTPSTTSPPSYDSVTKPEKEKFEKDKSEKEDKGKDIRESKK

COc1cc(NC(=O)c2ccc(-c3ccc(Cl)cc3)o2)cc(OC)c1
IC50 [1]: 6.74 µM | IC50 [2]: > 10 µM | bioavailability [3]: 12.8% | IC50 [4]: 35.3 µM | IC50 [5]: > 10 µM | ED50 (Rattus norvegicus [6]): 65 mg/kg | IC50 [7]: > 10 µM | ED50 (Rattus norvegicus [8]): > 100 mg/kg | ED50 (Mus musculus): > 100 mg/kg | Activity (Rattus norvegicus [9]): 32% | Activity (DRG neuron): Active | IC50 [10]: 9.49 µM
